Test results taken from US9266904B2, “6-bridged heteroaryldihydropyrimidines for the treatment and prophylaxis of hepatitis B virus infection” (priority 2013, dated 2016).

The compounds below were run on HBV replication in HepG2.2.15 cells (assay: Anti-HBV activity in vitro in HepG2.2.15 cells (extracellular HBV DNA by qPCR)). Conditions: Hepatitis B virus, HepG2.2.15, Anti-HBV activity in HepG2.2.15 cells; read-out: EC50.
Assay type: cell-based
Text: HepG2.2.15 and HepDE19 are stably-transfected cell lines containing the HBV genome. Both cell lines are derived from the hepatoblastoma cell line Hep G2 (American Type Culture Collection, ATCC® HB-8065™) by the published procedures described in references: M A Selles et al. Proc. Natl. Acad. Sci. USA 1987, 84, 1005-1009 and H Guo et al. Journal of Virology 2007, 81, 12472-12484, respectively. Both cell lines were maintained in Dulbecco's modified Eagle's medium (DMEM)-F12 medium supplemented with 10% fetal bovine serum, 100 U/mL penicillin, 100 μg/mL streptomycin, and 0.5 mg/mL of G418.
While HepG2.2.15 cells constitutively support HBV replication and production of virus particles, HepDE19 cells are inducible by tetracycline. Addition of 1 μg/mL tetracycline in culture medium suppresses HBV replication in HepDE19 cells, whereas switching to tetracycline-free medium resumes this process.
HepG2.2.15 cells were seeded into 96-well plates (3×10^4 cells in 100 μL media per well) and incubated overnight at 37° C. The test compounds were serially half-log diluted in DMSO, then diluted 100 times in culture media. 100 μL diluted compounds were added into the plates to reach 0.5% final concentration of DMSO in every well. Five days after compound treatment, culture supernatant was collected for further analysis.
For quantitative PCR detection of extracellular HBV DNA, 100 μL culture supernatant was collected and processed in MagNA Pure 96 Nucleic Acid Purification System (Roche Applied Science) for viral DNA extraction. The extracted samples were subjected to HBV DNA quantification by qPCR. The effective compound concentration at which HBV replication is inhibited by 50% (EC50) was determined.
The Examples were tested in the above assays as described herein and found to have EC50<1 μM in HepG2.2.15 assay.

Q: How did the EC50 turn out when `COC(=O)C1=C(CN2C3CC(F)(F)C2C[C@@H]3C(=O)O)NC(c2nccs2)=N[C@H]1c1ccc(F)cc1Cl` (stereo partly drawn) [Example 151, (5S)-7-[[(4R)-4-(2-chloro-4-fluoro-phenyl)-5-methoxycarbonyl-2-thiazol-2-yl-1,4-dihydropyrimidin-6-yl]methyl]-2,2-difluoro-7-azabicyclo[2.2.1]heptane-5-carboxylic acid] was run?
A: Its EC50 is 29.5 nM.

Q: For `CCOC(=O)CC1(O)CC2COCC(C1O)N2CC1=C(C(=O)OC)[C@H](c2ccc(F)cc2Cl)N=C(c2nccs2)N1` (stereo partly drawn) [Example 138, Methyl (4R)-4-(2-chloro-4-fluoro-phenyl)-6-[[7-(2-ethoxy-2-oxo-ethyl)-6,7-dihydroxy-3-oxa-9-azabicyclo[3.3.1]nonan-9-yl]methyl]-2-thiazol-2-yl-1,4-dihydropyrimidine-5-carboxylate], which EC50 is on record?
A: Its EC50 is 58.2 nM.

Q: `COC(=O)C1=C(CN2CC3CCC(C2)O3)NC(c2nccs2)=N[C@H]1c1ccc(F)cc1Cl` [Example 142, Methyl (4R)-4-(2-chloro-4-fluoro-phenyl)-6-(8-oxa-3-azabicyclo[3.2.1]octan-3-ylmethyl)-2-thiazol-2-yl-1,4-dihydropyrimidine-5-carboxylate] was tested. Which EC50 did it give?
A: The EC50 was 130 nM.

Q: How did the EC50 turn out when `CNS(=O)(=O)N1CC2COCC(C1)N2CC1=C(C(=O)OC)[C@H](c2ccc(F)cc2Cl)N=C(c2nccs2)N1` [Example 16, (R)-4-(2-Chloro-4-fluoro-phenyl)-6-(7-methylsulfamoyl-3-oxa-7,9-diaza-bicyclo[3.3.1]non-9-ylmethyl)-2-thiazol-2-yl-1,4-dihydro-pyrimidine-5-carboxylic acid methyl ester] was run?
A: The EC50 was 15 nM.

Q: Which EC50 does the source give for `COC(=O)C1=C(CN2C3CC(F)(F)C2C[C@](O)(CC(=O)O)C3)NC(c2nccs2)=N[C@H]1c1ccc(F)c(F)c1C` (stereo partly drawn) [Example 119, 2-[(3S)-8-[[(4S)-4-(3,4-difluoro-2-methyl-phenyl)-5-methoxycarbonyl-2-thiazol-2-yl-1,4-dihydropyrimidin-6-yl]methyl]-6,6-difluoro-3-hydroxy-8-azabicyclo[3.2.1]octan-3-yl]acetic acid] here?
A: The EC50 was 21.3 nM.

Q: Which EC50 does the source give for `COC(=O)C1=C(CN2[C@H]3C[C@H](CC(=O)O)C[C@@H]2C(F)(F)C3)NC(c2nccs2)=N[C@H]1c1ccc(F)c(F)c1C` [Example 112, 2-[(1S,3S,5R)-8-[[(4S)-4-(3,4-difluoro-2-methyl-phenyl)-5-methoxycarbonyl-2-thiazol-2-yl-1,4-dihydropyrimidin-6-yl]methyl]-6,6-difluoro-8-azabicyclo[3.2.1]octan-3-yl]acetic acid] here?
A: The EC50 was 35.8 nM.

Q: With `COC(=O)C1=C(CN2C3CC(F)(F)C2C[C@](O)(CC(=O)O)C3)NC(c2nccs2)=N[C@H]1c1cccc(F)c1Cl` (stereo partly drawn) [Example 121, 2-[(3S)-8-[[(4R)-4-(2-chloro-3-fluoro-phenyl)-5-methoxycarbonyl-2-thiazol-2-yl-1,4-dihydropyrimidin-6-yl]methyl]-6,6-difluoro-3-hydroxy-8-azabicyclo[3.2.1]octan-3-yl]acetic acid] as the compound, how does the EC50 read?
A: Its EC50 is 33 nM.

Q: How did the EC50 turn out when `COC(=O)C1=C(CN2CC3CC2CC3(F)F)NC(c2nccs2)=N[C@H]1c1ccc(F)cc1Cl` (stereo partly drawn) [Example 143, Methyl (4R)-4-(2-chloro-4-fluoro-phenyl)-6-[(5,5-difluoro-2-azabicyclo[2.2.1]heptan-2-yl)methyl]-2-thiazol-2-yl-1,4-dihydropyrimidine-5-carboxylate] was run?
A: Its EC50 is 41 nM.

Q: Which EC50 does the source give for `COC(=O)C1=C(CN2C3CNC(=O)C2COC3)NC(c2nccs2)=N[C@H]1c1ccc(F)cc1Cl` (stereo partly drawn) [Example 133, Methyl (4R)-4-(2-chloro-4-fluoro-phenyl)-6-[(6-oxo-3-oxa-7,9-diazabicyclo[3.3.1]nonan-9-yl)methyl]-2-thiazol-2-yl-1,4-dihydropyrimidine-5-carboxylate] here?
A: Its EC50 is 34 nM.

Q: How did the EC50 turn out when `COC(=O)C1=C(CN2[C@@H]3COC[C@H]2CC(OCC(=O)O)C3)NC(c2nccs2)=N[C@H]1c1ccc(F)c(F)c1` (stereo partly drawn) [Example 47, 2-[[(1R,5S)-9-[[(4S)-4-(3,4-difluorophenyl)-5-methoxycarbonyl-2-thiazol-2-yl-1,4-dihydropyrimidin-6-yl]methyl]-3-oxa-9-azabicyclo[3.3.1]nonan-7-yl]oxy]acetic acid] was run?
A: Its EC50 is 295 nM.
